Structures can show the parent of a compound that is named as a salt.
These compounds were tested against T1, human renin (Homo sapiens, UniProt P00797) (assay: In vitro test with pure human renin (angiotensin I production via RIA)). Conditions: human tetradecapeptide renin substrate (hTD), pH 7.4, three hours at 37° C.
T1 sequence (P00797 67-406): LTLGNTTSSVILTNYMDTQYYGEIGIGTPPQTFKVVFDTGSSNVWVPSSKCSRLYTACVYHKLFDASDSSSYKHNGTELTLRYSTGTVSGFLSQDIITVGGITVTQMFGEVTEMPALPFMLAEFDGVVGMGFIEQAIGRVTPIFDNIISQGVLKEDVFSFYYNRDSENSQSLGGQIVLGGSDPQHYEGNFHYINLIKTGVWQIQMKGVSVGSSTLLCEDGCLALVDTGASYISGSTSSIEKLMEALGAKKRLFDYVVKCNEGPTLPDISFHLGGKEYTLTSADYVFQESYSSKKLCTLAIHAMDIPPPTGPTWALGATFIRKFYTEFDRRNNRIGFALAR
Assay type: biochemical
Experimental: The tests can be carried out in analogy to those described by D. T. Pals et al. in Hypertension Vol. 8, 1105-1112 (1986) or J. Boger et al. in J. Med. Chem. 28, 1779-1790 (1985) or J. F. Dellaria et al. in J. Med. Chem. 30,2137-2144 (1987) or T. Kokubu et al. in Biochem. Biophys. Res. Commun. 118, 929-933 (1984):
In vitro test with pure human renin:
The test is carried out in Eppendorf test tubes. The incubation mixture consists of (1) 100 μl of human renin in buffer A (0.1 M sodium phosphate solution, pH 7.4, containing 0.1% bovine serum albumin, 0.1% sodium azide and 1 mM ethylenediaminetetraacetic acid), sufficient for a renin activity of 2-3 ng of angiotensin I/ml/hr.; (2) 145 μl of buffer A: (3) 30 μl of 10 mM human tetradecapeptide renin substrate (hTD) in 10 mM hydrochloric acid: (4) 15 μl of dimethyl sulphoxide with or without inhibitor and (5) 10 μl of a 0.03 molar solution of hydroxyquinoline sulphate in water.
The samples are incubated for three hours at 37° C. and, respectively, 4° C. in triplicate. 2×100 μl samples per test tube are used in order to measure the production of angiotensin I via RIA (standard radioimmunoassay; clinical assay solid phase kit). Cross reactivities of the antibody used in the RIA are: angiotensin I 100%; angiotensin II 0.0013%; hTD (angiotensin I-Val-Ile-His-Ser-OH) 0.09%. The production of angiotensin I is determined by the difference between the test at 37° C. and that at 4° C.
The following controls are carried out:
(a) Incubation of hTD samples without renin and without inhibitor at 37° C. and 40° C. The difference between these two values gives the base value of the angiotensin I production.
(b) Incubation of hTD samples with renin, but without inhibitor at 37° C. and 4° C. The difference between these values gives the maximum value of the angiotensin I production.
In each sample the base value of the angiotensin I production is subtracted from the angiotensin I production which is determined. The difference between the maximum value and the base value gives the value of the maximum substrate hydrolysis (=100%) by renin.
The results are given as IC50 values which denote the concentration of the inhibitor at which the enzymatic activity is inhibited by 50%. The IC50 values are determined from a linear regression curve from a logit-log plot.
In the case of `COc1cc(CO[C@H]2CNC[C@@H](OC[C@H](O)CO)[C@@H]2c2ccc(OCCCOc3ccccc3[N+](=O)[O-])cc2)cc2ccccc12` [C, (R)-3-[(3S,4R,5R)-5-(4-methoxy-naphthalen-2-ylmethoxy)-4-[4-[3-(2-nitro-phenoxy)-propoxy]-phenyl]-piperidin-3-yloxy]-propane-1,2-diol], the IC50 is reported as 80 pM. For `COc1ccccc1COCCCOc1ccc([C@H]2[C@H](Cn3ccnc3)CNC[C@@H]2OCc2cc(OC)c3ccccc3c2)cc1` [E, (3S,4R,5R)-3-imidazol-1-ylmethyl-4-[4-[3-(2-methoxy-benzyloxy)-propoxy]-phenyl]-5-(4-methoxy-naphthalen-2-ylmethoxy)-piperidine dihydrochloride], the IC50 was 70 pM. `COC[C@@H](O)CO[C@@H]1CNC[C@H](OCc2cc(OC)c3ccccc3c2)[C@H]1c1ccc(OCCCOCc2ccccc2OC)cc1` [A, (R)-1-methoxy-3-[(3S,4R,5R)-4-[4-[3-(2-methoxy-benzyloxy)-propoxy]-phenyl]-5-(4-methoxy-naphthalen-2-ylmethoxy)-piperidin-3-yloxy]-propan-2-ol] gave an IC50 of 60 pM. In the case of `COc1ccccc1COCCCOc1ccc([C@H]2[C@H](CO)CNC[C@@H]2OCc2cc(OC)c3ccccc3c2)cc1` [D, (3S,4R,5R)-[4-[4-[3-(2-methoxy-benzyloxy)-propoxy]-phenyl]-5-(4-methoxy-naphthalen-2-ylmethoxy)-piperidin-3-yl]-methanol], the IC50 is reported as 20 pM. Compound `COCCOC[C@@H](O)CO[C@@H]1CNC[C@H](OCc2cc(OC)c3ccccc3c2)[C@H]1c1ccc(OCCCOCc2ccccc2OC)cc1` [B, (R)-1-[(3S,4R,5R)-4-[4-[3-(2-methoxy-benzyloxy)-propoxy]-phenyl]-5-(4-methoxy-naphthalen-2-ylmethoxy)-piperidin-3-yloxy]-3-(2-methoxy-ethoxy)-propan-2-ol] has an IC50 of 30 pM.

From US6673931B2, “Naphthalenyl piperidines as renin inhibitors” (Hoffman-La Roche Inc., priority 1999, dated 2004)
